pKd: −log10 of the molar value.
Target: α-glucosidase
Experiment: SPR (Biacore 8K, CM5 chip, immobilized enzyme); also p-NPG inhibition (IC50 […], Ki […], non-competitive, reversible) and CD
Format: binding, Saccharomyces cerevisiae

pKd: 4.41
SMILES: Oc1cc(-c2ccccc2)cc(O)c1O [THB, 3,4,5-Trihydroxybiphenyl]

From article PMC12287757, “Exploring the inhibitory effect and mechanism of 3,4,5-trihydroxybiphenyl on α-glucosidase: an integrated experimental and computational approach” (Frontiers in Pharmacology, 2025)
